Our source for the TGI values is PubChem BioAssay (NCI).

Test systems include SF-539 CNS; K-562 leukemia; HOP-18 NSCLC; SF-295 CNS; CCRF-CEM leukemia; XF 498 CNS; SNB-78 CNS; DLD-1 colon; SN12C renal; KM20L2 colon; NCI-H522 lung.
Holding throughout (assay): growth of human tumour cells (NCI), 48 h

Each structure is given as a SMILES string.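 Dose response: 5 concentrations. Exposure: 48 h. Format: 96-well plates. Endpoint: linear interpolation; highest concentration if not reached. TGI denotes the concentration required for complete inhibition of growth.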

`O=c1cc(-c2ccccc2)[nH]c2cc(O)ccc12`: the TGI was > 100 µM in the test with SF-539 CNS; 39.2 µM with K-562 leukemia; > 100 µM in the test on HOP-18 NSCLC; > 100 µM in the test with SF-295 CNS; 42.6 µM in the test with CCRF-CEM leukemia; 50.4 µM with XF 498 CNS. The TGI is > 100 µM with SNB-78 CNS; 35.7 µM in the test on DLD-1 colon; 89.6 µM in the test on SN12C renal; 40.4 µM in the test on KM20L2 colon; 76.2 µM in the test on NCI-H522 lung.
Turning to `CN(CCO)c1nc2c(c(=O)[nH]1)CCC2`, the TGI in the test with SF-539 CNS, with K-562 leukemia, in the test with HOP-18 NSCLC, in the test on SF-295 CNS, in the test with CCRF-CEM leukemia and in the test on XF 498 CNS was > 100 µM throughout. In addition, the TGI in the test on SNB-78 CNS, in the test with DLD-1 colon, in the test with SN12C renal, in the test on KM20L2 colon and in the test on NCI-H522 lung was > 100 µM throughout.
As to `CCOC1(COP(=O)(OCc2ccccc2)OCc2ccccc2)COC(COP(=O)(OCc2ccccc2)OCc2ccccc2)(OCC)CO1` (stereo not drawn), the TGI with SF-539 CNS, in the test with K-562 leukemia, with HOP-18 NSCLC, with SF-295 CNS, with CCRF-CEM leukemia and in the test with XF 498 CNS was > 100 µM each time. The TGI in the test with SNB-78 CNS, in the test on DLD-1 colon, in the test with SN12C renal, in the test with KM20L2 colon and in the test with NCI-H522 lung was > 100 µM in each case.
